The text below walks through data of patent US4511559A, “Biologically active polysaccharide concentrates and process for production of preparates containing such substances” (Kozponti Valto-es Hitelbank Rt. InnovacioAlap, priority 1982, dated 1985).

Data set [1] has as its system rat paw carrageenan oedema. Briefly: rat paw carrageenan oedema test (anti-inflammatory activity). Particulars: for Anti-inflammatory activity %: table 4; for ED50: Rattus norvegicus, po, reference standard. The format is in vivo. From the text: (§1) The anti-inflammatory activity of the polysaccharide concentrates produced according to the invention was investigated on the rat paw carrageenan oedema test according to Winter et al. [Proc. Soc. Exp. Biol. Med. 111. 544. (1962)]. The concentrate has a significant specific activity and in connection with its advantageous anti-inflammatory activity it posseses a remarkably low toxicity.
In general terms: The carrageenan paw model is a standard test of acute inflammation.

A further data set is described as follows: in vivo. Particulars: rat, in vivo, po, LD50, p.o. The method, then:
(§2) The anti-inflammatory activity of the polysaccharide concentrate according to the invention was investigated intraperitoneally on rat according to the paw carrageenan oedema test. Simultaneously the LD50 values of the polysaccharide concentrates (i.p.) were determined.
(§3) The anti-inflammatory activity of the prepared polysaccharide concentrates was determined in comparison to the indomethancin as well using the rat paw carrageenan oedema test. The polysaccharide sample was intraperitoneally injected one hour before the inflammation inducing carrageenan. As reference standard per os applied indomethacin was used, which was suspended in 1% methylcellulose solution, and given through a gastric tube into the stomach one hour prior to the administration of Carrageenan to CFY rats and CFLP mice. The dosage was the same during the toxicity studies as well.
(§4) To develop the PG phase 5 hours are required from the injection of the inflammation inducing carrageenan.

Another data set relates to rat. Kind of data set: in vivo. To be noted: table 4. The method, then: as §2, §3, §4
Data set [2] in a line: rat paw carrageenan oedema test (anti-inflammatory activity). The data set is classed as in vivo. To be noted: rat, in vivo, po, read-out: Therapeutic index LD50/ED50.
Text: as §1

Data set [3] relates to adjuvans arthritis in rat. Kind of data set: adjuvans arthritis in rat (chronic inflammation model). To be noted: 50 mg/kg, intraperitoneal, 3 weeks. The data set is classed as in vivo. From the text: The polysaccharides produced according to the invention show significant effectivity on chronic inflammation models too, for example on adjuvans arthritis in rat, at intraperitoneal treatment for 3 weeks: […]

Read-outs that look alike come from different tables or passages of the source.

For the molecule `CC(=O)Oc1ccccc1C(=O)O` [Aspyrine], the Anti-inflammatory activity % in data set [1] (400 mg/kg p.o.) worked out at 36%. The molecule also had an LD50 in “in vivo” (table 4) of 1200 mg/kg. In addition, the Dose/LD50 ratio in the data set with rat (dose 400 mg/kg p.o.) is 0.330.
Turning to `COc1ccc2c(c1)c(CC(=O)O)c(C)n2C(=O)c1ccc(Cl)cc1` [Indomethacin, indomethacin], the values for the selectivity ratio in data set [2] (2 hours) and in data set [2] (5 hours) were 10.2 and 14.5, respectively. The Anti-inflammatory activity % in data set [1] (10 mg/kg p.o.) turned out to be 51%. Moreover, the ED50 in data set [1] (2 hours) turned out to be 3.14 mg/kg; in data set [1] (5 hours) it was 2.2 mg/kg. Besides, the median lethal dose (LD50) in the data set “in vivo” (table 2) worked out at 32 mg/kg; in the data set “in vivo” (table 4), 17 mg/kg. For the same molecule, in the data set with rat (dose 10 mg/kg p.o.), the Dose/LD50 ratio is reported as 0.580.
As for `CCCCC1C(=O)N(c2ccccc2)N(c2ccccc2)C1=O` [Phenylbutazone, phenylbutazone], the Anti-inflammatory activity % in data set [1] (90 mg/kg p.o.) is reported as 40%; in data set [3], 64%. Also, in data set [1] (100 mg/kg, standard), the inhibition is 45%. The same molecule registered an Inhibiton in data set [1] (intraperitoneally, rat, 100 mg/kg) of 45.0%.

The term LD50 denotes the dose expected to kill half of the subjects tested. In general, ED50 refers to the dose that gives a 50% effect, or the effect in half of the subjects. A higher ED50 goes with a need for a large dose. As a reminder, the inhibition is the relative decrease from the control value, in per cent. Lower therefore signals a response near the control.
